Key:
Test in all cases: Trypan blue staining apoptosis assay
Type in all cases: cell-based
[1] = tested on: SW620 human colon cancer cell line; conditions: SW620 (p53 MT/LIG4 WT); 25 μM and 50 μM, 48 hours
Source text: (§1) In order to analyze the degree of apoptosis of Compound A, which is a novel PARP/Tankyrase simultaneous inhibitor according to a p53 genotype and LIG4 genotype, the present inventors treated a novel PARP/Tankyrase simultaneous inhibitor, Compound A, and a competitive drug PARP inhibitor, olaparib, in RKO, LoVo human colon cancer cell line in which the p53 gene is a normal type and the LIG4 gene is a mutant type and an SW620 human colon cancer cell line in which the p53 gene is a mutant type and the LIG4 gene is a normal type. The number of cells was measured by trypan blue staining assay to confirm the degree of apoptosis. The conditions and methods of the experiment were as follows: RKO, LoVo human colon cancer cell line in which the p53 gene is a normal type and the LIG4 gene is a mutant type and the SW620 human colon cancer cell line in which the p53 gene is a mutant type and the LIG4 gene is a normal type were cultured in RPMI1640 (10% FBS, 1% penicillin/streptomycin) and cultured in a 60 mm plate at 1×10^5 per well for 24 hours at 37° C. Compound A, which is a novel PARP/Tankyrase simultaneous inhibitor, and olaparib, which is a competitive drug PARP inhibitor, were treated with each of 25 μM and 50 μM and were cultured for 48 hours. The number of cells was measured by trypan blue staining assay to confirm the degree of apoptosis.
(§2) In order to analyze the degree of apoptosis of Compounds A and B, which are novel PARP/Tankyrase simultaneous inhibitors, in a cell line RKO in which the p53 genotype is a normal type and an LIG4 genotype is a mutant type, a cell line SW620 in which the p53 genotype is a mutant type and an LIG4 genotype is a normal type, a cell line HCT8 in which the p53 genotype and an LIG4 genotype are normal, and a cell line KM12C in which the p53 genotype and an LIG4 genotype are mutant, the human colon cancer cell lines of RKO, HCT, SW620 and KM12C with different p53 genotype and LIG4 genotype were cultured in RPMI1640 (10% FBS, 1% penicillin/streptomycin) and cultured in a 60 mm plate at 1×10^5 per well for 24 hours at 37° C. Compounds A and B, which are novel PARP/Tankyrase simultaneous inhibitors, and olaparib, which is a competitive drug PARP inhibitor, and NVP-TNKS656, which is a Tankyrase inhibitor, were treated with each of 25 μM and 50 μM. After 48 hours of culturing, the number of cells was measured by trypan blue staining assay to confirm the degree of apoptosis.

[2] = tested on: KM12C human colon cancer cell line; conditions: KM12C (p53 MT/LIG4 MT); 25 μM and 50 μM, 48 hours
Source text: as §2

[3] = tested on: HCT8 human colon cancer cell line; conditions: HCT8 (p53 WT/LIG4 WT); 25 μM and 50 μM, 48 hours
Source text: as §2

[4] = tested on: RKO human colon cancer cell line; conditions: RKO (p53 WT/LIG4 MT); 25 μM and 50 μM, 48 hours
Source text: as §1
In order to analyze the degree of apoptosis of Compound A, which is a novel PARP/Tankyrase simultaneous inhibitor, according to the p53 genotype and an LIG4 genotype, the present inventors treated Compounds A and B, which are novel PARP/Tankyrase simultaneous inhibitors, in the RKO and LoVo human colon cancer cell lines in which the p53 gene is a normal type and an LIG4 gene is a mutant type. Then, the number of cells was measured by trypan blue staining assay to confirm the degree of apoptosis. The RKO and LoVo human colon cancer cell lines were cultured under the same conditions as in Example 5. Compounds A and B, which are novel PARP/Tankyrase simultaneous inhibitors, were treated with 25 μM and 50 μM, respectively, for 48 hours. After 48 hours of culturing, the number of cells was measured by trypan blue staining assay to confirm the degree of apoptosis. […]

COc1ccc(C(=O)C2CCN(CC(=O)N(Cc3nc4c(c(=O)[nH]3)COCC4)CC3CC3)CC2)cc1 [NVP-TNKS656, reference compound]
degree of apoptosis (trypan blue cell count) [1]: No apoptosis occurred
degree of apoptosis (trypan blue cell count) [2]: No apoptosis occurred
degree of apoptosis (trypan blue cell count) [3]: No apoptosis occurred
degree of apoptosis (trypan blue cell count) [4]: no change in apoptosis

Reference: patent publication US10683553B2, “Method for determining sensitivity to simultaneous inhibitor against PARP and Tankyrase” (THE ASAN FOUNDATION, priority 2015, dated 2020)
